Assay type in all cases: biochemical
The nature of experiment [1]: SOD activity, xanthine/xanthine oxidase with cytochrome C as acceptor (Example 2). To be noted: for SOD: relative to C7 (C7 = 100). As for the experimental part:
Superoxide dismutase (SOD) activity was assayed by following the inhibition of the reduction of an electron acceptor molecule in the presence of the free-radical generating system xanthine/xanthine oxidase (McCord et al. (1973) Superoxide and Superoxide Dismutase in “Oxidases and Related Redox Systems, vol. I, King et al. eds., University Park press, Baltimore, pp. 51-76). The assay mixture consisted of 50 mM sodium phosphate, pH 7.8, 120 μM xanthine, 0.2 units/ml xanthine oxidase, with acceptor molecule and salen manganese compound, as indicated. Assays were conducted at 27±0.2° C. using a water-jacketed cell holder in a Beckman DU7400 spectrophotometer. In most cases, oxidized cytochrome c, at 0.13 mg/ml, was employed as acceptor and its reduction was monitored spectrophotometrically at 550 nm. In some experiments, nitroblue tetrazolium (NBT), at 80 μM, was substituted for cytochrome c as the acceptor. NBT reduction was also monitored at 550 nm. An estimated extinction coefficient for NBT reduction, 20,800 M^−1cm^−1, determined empirically by exhaustive reduction of NBT in the reaction mixture described above, was employed where indicated. […] Conversion of xanthine to urate was calculated using ε290's of […] for urate and 4050 M^−1cm^−1 for xanthine. […] For each compound, at least four different concentrations were tested in duplicate.

Experiment [2] is described as follows: Peroxidase activity, H2O2-dependent oxidation of ABTS (Example 2). To be noted: relative to C7 (C7 = 100). Here is the method:
Peroxidase activity was assayed by monitoring the hydrogen peroxide-dependent oxidation of 2,2′-azino-bis(3-ethylbenzthiazoline-6) sulfonic acid (ABTS) spectrophotometrically. Standard assay mixtures consisted of 50 mM sodium phosphate, pH 8.1, 0.9% sodium chloride, 0.5 mM ABTS, and H2O2 and salen manganese complex as indicated. Where indicated, 50 mM sodium phosphate buffers of pH 6.0 or pH 7.1 were substituted. Assays were conducted at 27±0.2° C. ABTS oxidation was monitored at 740 or 500 nm to eliminate interference by the salen manganese complexes, many of which absorb in the vicinity of the λmax of oxidized ABTS, and to avoid absorbance values that exceeded the linear range of the spectrophotometer. The amount of oxidized ABTS was estimated using an Δε740 of 20,300 M^−1cm^−1 or an Δε500 of 3400 M^−1cm^−1 calculated based upon the published molar extinction coefficient oat 405 nm (36,800).
(§1) Catalase and peroxidase activities were assayed as described in Example 2. Catalase assays contained 10 μM salen-manganese complex and 10 mM hydrogen peroxide. Peroxidase assays contained 10 μM salen-manganese complex and 0.2 mM hydrogen peroxide. Glucose-glucose oxidase toxicity assays were performed using human dermal fibroblasts as described in Example 2.

The nature of experiment [3]: Catalase activity, conversion of H2O2 to oxygen, polarographic oxygen electrode (Example 2). To be noted: relative to C7 (C7 = 100). As for the experimental part:
Catalase activity was assayed by monitoring the conversion of H2O2 to oxygen using a Clark-type polarographic oxygen electrode. The apparatus consisted of a Mini Clark Style electrode, a 600 μl Oxygen Uptake Chamber, and a Chemical Microsensor system, all obtained from Diamond General Corporation (Ann Arbor, Mich.). The electrode was calibrated by immersion in nitrogen- or air-equilibrated buffers using a Dual Chamber Calibration Cell (Diamond General,. Corp.). Catalase reaction mixtures consisted of 50 mM sodium phosphate, pH 8.1, 0.9% sodium chloride, and salen manganese complex and H2O2 at the indicated concentrations. The temperature of the water-jacketed reaction chamber, as well as the calibration buffers, was maintained at 25±0.1° C. Data were collected at 1 sec intervals and stored-on a MacIntosh II computer using data acquisition hardware and software by Strawberry Tree, Inc. (Sunnyvale, Calif.). Dissolved oxygen concentrations were calculated as described previously (Del Rio et al. (1977) Anal. Biochem. 80: 409) based on a value of 2.5×10^−4 M oxygen for air-saturated buffer at 25° C. Linearity of the dissolved oxygen measurements within the experimental range was continued by determining the amount of oxygen generated from known quantities of H2O2 during exhaustive treatment with bovine liver catalase. Stock solutions of H2O2 were prepared by diluting a commercial 30% H2O2 solution in water and the H2O2 concentrations in these stocks were determined by absorbance at 240 nm, using a molar extinction coefficient of 44 (Stadtman, E R. et al. (1990) Proc. Natl. Acad. Sci. USA 87: 384). […] In the absence of salen manganese complex, H2O2 alone typically produced an early, relatively slow increase in signal. The slope of this increased signal was not proportional to H2O2 concentration (for example in one experiment, 1 and 10 Mm H2O2 yielded apparent rates of 12 and 14 μM oxygen per min, respectively) and may be due to an electrode artifact. […] Where presented, initial rates were calculated by determining the slope of the linear portion of time dependent plots of oxygen generation, usually comprising the first five seconds of the reaction. Unless otherwise indicated, these were corrected by subtracting the rate obtained with H2O2 alone. Where presented, endpoint oxygen generated was calculated from time-dependent plots, such as those shown in FIG. 14, as the difference between the baseline oxygen concentration immediately prior to substrate addition and the maximal oxygen concentration achieved during the course of the reaction. All reactions subjected to these calculations were run for a sufficient time to ensure that oxygen generation had ceased.
as §1

As to `C1=NCCN=Cc2ccccc2[O][Zn][O]c2ccccc21` [Compound C60], the SOD in experiment [1] came out at 0. In addition, the Peroxidase in experiment [2] is 0.
`C1=NCCN=Cc2ccccc2[O][Cu][O]c2ccccc21` [Compound C63] returned an SOD in experiment [1] of 0. This molecule also returned a Peroxidase in experiment [2] of 0.
In experiment [3], `COc1cccc2c1[O][Mn]([O]C(C)=O)[O]c1c(cccc1OC)C=Nc1ccccc1N=C2` [Compound C48] gave a Catalase endpt. of 741 and a Catalase rate of 485. In experiment [1], the SOD is given as 91. The molecule further registered a Peroxidase in experiment [2] of 88.
With `Oc1ccc2c(c1)[O][Mn]([Cl])[O]c1cc(O)ccc1C=NCCN=C2` [Compound C72], the SOD in experiment [1] is listed as 58.
As to `O=[N+]([O-])[Mn]1[O]c2ccccc2C=NCCN=Cc2ccccc2[O]1` [Compound C56], in experiment [1], the SOD is recorded as 200. The molecule further returned a Peroxidase in experiment [2] of 107.
In the case of `COc1cc2c(c(OC)c1)[O][Mn]([O]C(C)=O)[O]c1c(cc(OC)cc1OC)C=NCCN=C2` [Compound C42], in experiment [3], the Catalase endpt. is recorded as 379 and the Catalase rate amounted to 231. The molecule also displayed an SOD in experiment [1] of 130. This molecule yielded a Peroxidase in experiment [2] of 171.
For `CC(=O)[O][Mn]1[O]c2cc(O)ccc2C=NCCN=Cc2ccc(O)cc2[O]1` [Compound C73], the SOD in experiment [1] turned out to be 61.
Turning to `CCOc1cccc2c1[O][Mn]([O]C(C)=O)[O]c1c(cccc1OCC)C=NCCN=C2` [Compound C68], in experiment [3], the Catalase endpt. was found to be 326 and the Catalase rate came to 196. In addition, the SOD in experiment [1] came out at 88. This molecule also showed a Peroxidase in experiment [2] of 162.
In experiment [3], `COc1cccc2c1[O][Mn]([Cl])[O]c1c(cccc1OC)C=NC1CCCCC1N=C2` (stereo not shown) [Compound C49] returned a Catalase endpt. of 285 and a Catalase rate of 123. The molecule further returned an SOD in experiment [1] of 88. The molecule further displayed a Peroxidase in experiment [2] of 138.
Turning to `CCOc1cccc2c1[O][Mn]([Cl])[O]c1c(cccc1OCC)C=NCCN=C2` [Compound C67], in experiment [3], the Catalase endpt. is recorded as 256 and the Catalase rate is given as 159. Further, the SOD in experiment [1] is recorded as 94. Further, in experiment [2], the Peroxidase worked out at 134.
For `[Br][Mn]1[O]c2ccccc2C=NCCN=Cc2ccccc2[O]1` [Compound C55], the SOD in experiment [1] is 178. This molecule showed a Peroxidase in experiment [2] of 101.
In experiment [3], `CC(=O)[O][Mn]1[O]c2ccccc2C=Nc2cccnc2N=Cc2ccccc2[O]1` [Compound C43] returned a Catalase endpt. of 494 and a Catalase rate of 446. The SOD in experiment [1] is 57. This molecule had a Peroxidase in experiment [2] of 71.
Take `CC(=O)[O][Mn]1[O]c2ccc(O)cc2C=NCCN=Cc2cc(O)ccc2[O]1` [Compound C74]: in experiment [1], the SOD is 65.
On to `[F][Mn]1[O]c2ccccc2C=NCCN=Cc2ccccc2[O]1` [Compound C54], for which the SOD in experiment [1] was 75. In experiment [2], the Peroxidase was 116.
In experiment [3], `[O]=[V]1[O]c2ccccc2C=NCCN=Cc2ccccc2[O]1` [Compound C53] yielded a Catalase endpt. of 0 and a Catalase rate of 0. In addition, in experiment [1], the “SOD activity (in words)” value was “noncatalytic SOD activity” and the SOD result is given as “Noncatalytic”. In experiment [2], the Peroxidase turned out to be 0.
With `CC(=O)[O][Mn]1[O]c2c(O)cccc2C=NCCN=Cc2cccc(O)c2[O]1` [Compound C71], the SOD in experiment [1] was found to be 75.
Turning to `[Cl][Fe]1[O]c2ccccc2C=NCCN=Cc2ccccc2[O]1` [Compound C57], the SOD in experiment [1] amounted to 33.
In experiment [3], `COc1cccc2c1[O][Mn]([O]C(C)=O)[O]c1c(cccc1OC)C=Nc1ncccc1N=C2` [Compound C45] returned a Catalase endpt. of 674 and a Catalase rate of 357. This molecule came in with an SOD in experiment [1] of 83. For the same molecule, in experiment [2], the Peroxidase is recorded as 24.
In experiment [3], `CC(=O)[O][Mn]1[O]c2ccccc2C(C)=NCCN=C(C)c2ccccc2[O]1` [Compound C85] registered a Catalase endpt. of 19 and a Catalase rate of 31. For the same molecule, the SOD in experiment [1] was found to be 38. In experiment [2], this molecule gave a Peroxidase of 0.

These data come from US7582786B2, “Synthetic catalytic free radical scavengers useful as antioxidants for prevention and therapy of disease” (Eukarion Inc., priority 1996, dated 2009).
